# Experiment: Human HepG2 cell viability assay in 384 well format
# Assay type: toxicity, cell-based
# Set-up: dose 125 nL, time 70.5 hour; cytotoxicity at 70.5 h: concentration not given beside the values
# Details: HepG2 cells, read-out: Inhibition
row,Compound,cytotoxicity at 70.5 h
1,CN1CCN(C2CCN(Cc3noc(-c4ccccc4)n3)CC2)C1=O,-3.63%
2,CCOc1cccc2c1OCC(C(=O)NS(=O)(=O)Cc1ccccc1)=C2,1.24%
3,COc1cccc(N2CCC(CNc3cc(C)nc4ncnn34)C2)c1 (configuration not stated),-1.68%
4,COCC(=O)Nc1ccc(-c2noc([C@@H]3CCCN3C)n2)cn1,-7.79%
5,CC(=O)Nc1ccc2nc(-c3nccn3CCCN(C)C)ccc2c1,-8.35%
6,COc1ccc(CN2CCO[C@H]3[C@H](OCc4ccncc4)CC[C@@H]32)cc1,58.1%
7,CS(=O)(=O)N1Cc2ccnn2CC(C(=O)NCc2cccnc2)C1 (configuration not stated),20.5%
8,c1ncn(Cc2nnc(C3CCN(C4CCOCC4)CC3)n2C2CC2)n1,-7.09%
9,Fc1cccc(Cl)c1CN1CCC(c2n[nH]c3ncccc23)CC1,13.7%
10,CCCn1cnnc1CNC1CCCC1,5.01%
11,Cc1csc(NC(=O)C(C)Oc2ccc3c(c2)OCO3)n1 (configuration not stated),-9.39%
12,CC(C)NC(=O)CCNC(=O)Nc1cnn(-c2ccccc2Cl)c1,-6.67%
13,NC(=O)COc1ccc(CNCc2ccc(F)cc2)cc1,-4.15%
14,CCN1CCN(Cc2coc(-c3cccc(F)c3)n2)CC1,20.2%
15,CN(CC(F)F)C(=O)c1cn(-c2ccc(Br)cc2)cn1,3.66%
16,Cc1cs/c(=N\C(=O)Cn2nc(N3CCOCC3)ccc2=O)[nH]1,-13.8%
17,CC(C)C(NC(=O)N1CCS(=O)(=O)CC1)c1ccccc1Cl (configuration not stated),-5.93%
18,Cc1nn(C)c(N2CCOCC2)c1CNC1CCc2ccccc21 (configuration not stated),-7.04%
19,Cc1csc2ncnc(N3CCC(Cn4cc(C(C)(C)O)nn4)CC3)c12,5.18%
20,N[C@H]1CC[C@@H](NC(=O)c2ccc3nc(-c4ccc(F)cc4)cn3c2)CC1,-14.6%
21,O=c1[nH]c(=O)n(CC(O)c2ccc(F)cc2F)cc1Cl (configuration not stated),0.374%

row,Compound,cytotoxicity at 70.5 h
1,COc1cc(CCC(=O)N2CCC(c3cncc(C)n3)CC2)on1,-3.99%
2,Cc1ccc(C2(CN3CCN(c4ncccn4)CC3)CCNCC2)nc1,-1.1%
3,Cn1cnnc1-c1ccnc(NCc2ccc(Br)cc2)c1,-4.99%
4,O=C(CCN1CCOCC1)NC(Cc1ccsc1)c1nccs1 (configuration not stated),-4.65%
5,COc1ccc2c(c1)C1(CCN(Cc3ccccn3)CC1)N(C)CC2,0.00866%
6,COc1ccccc1OCCc1cc(C2CCNC2)n[nH]1 (configuration not stated),-6.36%
7,Cc1cccc(CCC(=O)N2CCOCC2c2c(C)n[nH]c2C)c1 (configuration not stated),17.3%
8,CC(C)N1CCn2c(nc3cc(C(N)=O)ccc32)C1,-16.5%
9,Cc1cnn(CC2CCCN2Cc2nnc(C3CC3)o2)c1 (configuration not stated),13.5%
10,CS(=O)(=O)c1cccc(C(N)c2ccc(F)cc2)c1 (configuration not stated),-3.93%
11,Cc1ccc(O)c(CNc2cccc(CN3CCN(C)CC3)c2)n1,-0.441%
12,C=C1C(C)(C)[C@H]2CC[C@]1(C(=O)N1CCC(n3cc(CO)nn3)CC1)C2,-7.81%
13,Cc1ccc2c(n1)N(Cc1csc(C)n1)CCN(C1CCOC1)C2 (configuration not stated),-5.88%
14,CCOCCCNC(=O)CN(c1cc(C)cc(C)c1)S(C)(=O)=O,-14.2%
15,Fc1ccc(OCc2noc(CN3CCc4cncnc4C3)n2)cc1,-4.28%
16,Cc1ccccc1C(=O)N1C[C@@H]2C[C@@H](C)O[C@@H]2C1,-8.1%
17,CCc1nnc2ccc(NCC3(O)CCOCC3)nn12,-7.18%
18,COc1ccc(OCc2nc(C(=O)N3C[C@H](O)[C@@H](N(C)C)C3)co2)cc1,-4.57%
19,Cc1cc(NCc2ccc(CO)cc2)n2nc(C)cc2n1,-0.853%
20,CCCN1CCN(C(=O)c2scnc2C)CC1,-3.56%
21,Cc1noc(C)c1CN1CC[C@H]2OCC[C@@]2(C(=O)NCC2CC2)C1,-5.64%

row,Compound,cytotoxicity at 70.5 h
1,COCCN1CCC1c1cc(NC2CCCC2)nc(C)n1 (configuration not stated),-5.31%
2,Cc1cc(CNS(=O)(=O)CCCC#N)ccc1N(C)C,0.915%
3,OC[C@@H]1[C@@H](c2ccccc2)CN2CCN(c3ccccn3)C[C@H]12,-3.64%
4,CCc1ccc(C(=O)Nc2cccc(CN3CCCC3C(N)=O)c2)cc1 (configuration not stated),0.802%
5,O=C(CCc1ccncc1)N1CCCC(N2CCNC2=O)C1 (configuration not stated),-19.2%
6,Cc1cc(=O)[nH]c(NCCNC(=O)CN2CCCCCC2)n1,15.9%
7,O=C(CNC(=O)C1CCCC1)NCC(O)c1ccc2ccccc2c1 (configuration not stated),-0.471%
8,COc1ccccc1CN(C)C(=O)CN1C(=O)OC[C@@H]1c1ccccc1,19.7%
9,O=C(Nc1cccc(CNCc2cccs2)c1)C1CCCC1,-15%
10,CCCC(=O)N1CCC2(CC1)COC2,-7.56%
11,O=C(CNC(=O)c1cnccn1)Nc1ncc[nH]1,-33.4%
12,O=C(C(O)c1ccccc1Cl)N1CCCN(Cc2cccnc2)CC1 (configuration not stated),-4.87%
13,CN1CCN(c2cc(N3CCCC3CO)ncn2)Cc2ccccc21 (configuration not stated),17.8%
14,CC(C)CC(=O)NCCCn1cncn1,16.9%
15,CN(CCc1ncnn1-c1ccccc1Cl)C1CCS(=O)(=O)C1 (configuration not stated),-17.7%
16,c1cncc(OC[C@]23COC[C@H]2CN(Cc2nccs2)C3)c1,-120%
17,Cc1cc2cccc(NC(=O)N3CCC(N(C)C)C3)c2o1 (configuration not stated),-8.17%
18,CNC(C(=O)OC)c1cc(F)ccc1F (configuration not stated),-3.37%
19,O=C(Cc1ccc(F)cc1)N1CCn2cc(Cn3cncn3)nc2C1,-9.64%
20,CCCNC(=O)N1CCCC2(CCC(=O)N(CCc3c[nH]cn3)C2)C1 (configuration not stated),-1.2%
21,Cc1cnn(C2CCCN(C(=O)c3ccc(N4CCCC4)nc3)C2)c1 (configuration not stated),-7.94%

row,Compound,cytotoxicity at 70.5 h
1,C[C@@H]1CC[C@@H](C)N1C(=O)c1cc(COc2ccccc2)[nH]n1,-0.483%
2,CN1CCN(Cc2cnc3n2CCN(C(=O)N2CCCC2)C3)CC1,-14.4%
3,COCCN(Cc1ccoc1)C(=O)c1c(F)cccc1Cl,-0.424%
4,Cc1noc(C)c1CC(=O)N1CCCN(C)c2ccc(Cl)cc21,-11.4%
5,CCOc1ncccc1NC(=O)N1CCCC(CNC(N)=O)C1 (configuration not stated),-8.62%
6,O=C(c1cccc(F)c1)N1CCc2ncc(Cn3cccn3)n2CC1,-11%
7,O=S(=O)(NC[C@H]1C[C@@H]2CCN1C[C@@H]2CN1CCCC1)c1ccc(Cl)cc1,17%
8,CS(=O)(=O)NCc1cncc2c1CCN(C(=O)N1CCCC1)C2,11.1%
9,O=C(NCCNc1cc(-n2cccc2)ncn1)c1cccs1,-4.09%
10,Cc1ocnc1C(=O)N(Cc1cccnc1)C[C@@H]1CCC(=O)N1,-8.79%
11,Cc1ccc(OCC(=O)N2CCCC(n3nc(C)nc3C)C2)cc1 (configuration not stated),-8.6%
12,Cc1[nH]ccc1C(=O)N(Cc1ccc(O)cc1)CC1CC1,-3.9%
13,Cn1cc(CN2CCc3onc(C(=O)N4CCCC4)c3C2)cn1,5.88%
14,CCN(CC1CCCO1)C(=O)Nc1cc(C(N)=O)ccc1OC (configuration not stated),-5.25%
15,CC(C)(C)CN(CCC#N)C(=O)Cc1ccc(-n2cnnn2)cc1,-10.8%
16,CCc1ccccc1C(=O)N1C[C@@H](CN2CCOCC2)[C@@H](CO)C1,27.9%
17,Cc1nn(-c2ccccc2)c(C)c1-c1ccnc(N2CCCOCC2)n1,-3.17%
18,CCc1ncc(C(=O)N2CC(N3CCCCC3)C2)cn1,25.6%
19,Cc1cc(C(=O)N2CCN(C)CC2)nn1CC(=O)NCc1ccccn1,-8.07%

# Reference: ChEMBL document CHEMBL3507680, “University of Dundee, Gates Library screen for HepG2 cell viability”
